From ChEMBL document CHEMBL3351679, “Radioiodinated benzyloxybenzene derivatives: a class of flexible ligands target to β-amyloid plaques in Alzheimer's brains” (J Med Chem, 2014)

Columns and labels:
[1] = biological target: T1, Amyloid-beta precursor protein (Homo sapiens, UniProt P05067); test: Displacement of [125I]1-Iodo-4-((4-methoxyphenoxy)methyl)benzene from amyloid beta42 (unknown origin) after 3 hrs by gamma counting
[2] = Partition coefficient, log D of the compound; assay type: physicochemical; conditions: octanol/water
Brain [3] = test: Biodistribution in ICR mouse brain at 250 uCi, iv measured at 2 mins post dose; assay type: ADME, organism-based; conditions: in vivo
Brain [4] = test: Biodistribution in ICR mouse brain at 250 uCi, iv measured at 60 mins post dose; assay type: ADME, organism-based; conditions: in vivo, 1 h
[5] = biological target: T1, Amyloid-beta precursor protein; test: Binding affinity to amyloid beta42 (unknown origin) after 3 hrs by gamma counting
Brain [6] = test: Ratio of drug uptake in ICR mouse brain at 250 uCi, iv measured at 2 mins post dose to drug uptake in ICR mouse brain at 250 uCi, iv measured at 60 mins post dose; assay type: ADME, organism-based; conditions: in vivo
Plasma = test: Biostability in mouse plasma assessed as radioactivity at 30 uCi at 37 degC measured at 60 mins by HPLC; assay type: ADME, cell-free; conditions: 1 h
Liver [7] = test: Biostability in mouse liver homogenate assessed as radioactivity at 30 uCi at 37 degC measured at 60 mins by HPLC; assay type: ADME, tissue-based; conditions: tissue homogenate, 1 h
Brain [8] = test: In vivo biostability in ICR mouse brain assessed as radioactivity at 250 uCi, iv measured at 2 mins post dose; assay type: ADME, organism-based
Brain [9] = test: In vivo biostability in ICR mouse brain assessed as radioactivity at 250 uCi, iv measured at 10 mins post dose; assay type: ADME, organism-based
Brain [10] = test: In vivo biostability in ICR mouse brain assessed as radioactivity at 250 uCi, iv measured at 30 mins post dose; assay type: ADME, organism-based; conditions: 0.5 h
Brain [11] = test: In vivo biostability in ICR mouse brain assessed as radioactivity at 250 uCi, iv measured at 60 mins post dose; assay type: ADME, organism-based; conditions: 1 h
Blood [12] = test: In vivo biostability in ICR mouse blood assessed as radioactivity at 250 uCi, iv measured at 2 mins post dose; assay type: ADME, organism-based
Blood [13] = test: In vivo biostability in ICR mouse blood assessed as radioactivity at 250 uCi, iv measured at 10 mins post dose; assay type: ADME, organism-based
Blood [14] = test: In vivo biostability in ICR mouse blood assessed as radioactivity at 250 uCi, iv measured at 30 mins post dose; assay type: ADME, organism-based; conditions: 0.5 h
Blood [15] = test: In vivo biostability in ICR mouse blood assessed as radioactivity at 250 uCi, iv measured at 60 mins post dose; assay type: ADME, organism-based; conditions: 1 h
Liver [16] = test: In vivo biostability in ICR mouse liver assessed as radioactivity at 250 uCi, iv measured at 2 mins post dose; assay type: ADME, organism-based
Liver [17] = test: In vivo biostability in ICR mouse liver assessed as radioactivity at 250 uCi, iv measured at 10 mins post dose; assay type: ADME, organism-based
Liver [18] = test: In vivo biostability in ICR mouse liver assessed as radioactivity at 250 uCi, iv measured at 30 mins post dose; assay type: ADME, organism-based; conditions: 0.5 h
Liver [19] = test: In vivo biostability in ICR mouse liver assessed as radioactivity at 250 uCi, iv measured at 60 mins post dose; assay type: ADME, organism-based; conditions: 1 h
[20] = In vivo biostability in ICR mouse urine assessed as radioactivity at 250 uCi, iv measured at 10 mins post dose; assay type: ADME, organism-based
[21] = In vivo biostability in ICR mouse urine assessed as radioactivity at 250 uCi, iv measured at 30 mins post dose; assay type: ADME, organism-based; conditions: 0.5 h
[22] = In vivo biostability in ICR mouse urine assessed as radioactivity at 250 uCi, iv measured at 60 mins post dose; assay type: ADME, organism-based; conditions: 1 h
[23] = In vivo biostability in ICR mouse feces assessed as radioactivity at 250 uCi, iv measured at 30 mins post dose; assay type: ADME, organism-based; conditions: 0.5 h
[24] = In vivo biostability in ICR mouse feces assessed as radioactivity at 250 uCi, iv measured at 60 mins post dose; assay type: ADME, organism-based; conditions: 1 h

T1 sequence (P05067 whole entry): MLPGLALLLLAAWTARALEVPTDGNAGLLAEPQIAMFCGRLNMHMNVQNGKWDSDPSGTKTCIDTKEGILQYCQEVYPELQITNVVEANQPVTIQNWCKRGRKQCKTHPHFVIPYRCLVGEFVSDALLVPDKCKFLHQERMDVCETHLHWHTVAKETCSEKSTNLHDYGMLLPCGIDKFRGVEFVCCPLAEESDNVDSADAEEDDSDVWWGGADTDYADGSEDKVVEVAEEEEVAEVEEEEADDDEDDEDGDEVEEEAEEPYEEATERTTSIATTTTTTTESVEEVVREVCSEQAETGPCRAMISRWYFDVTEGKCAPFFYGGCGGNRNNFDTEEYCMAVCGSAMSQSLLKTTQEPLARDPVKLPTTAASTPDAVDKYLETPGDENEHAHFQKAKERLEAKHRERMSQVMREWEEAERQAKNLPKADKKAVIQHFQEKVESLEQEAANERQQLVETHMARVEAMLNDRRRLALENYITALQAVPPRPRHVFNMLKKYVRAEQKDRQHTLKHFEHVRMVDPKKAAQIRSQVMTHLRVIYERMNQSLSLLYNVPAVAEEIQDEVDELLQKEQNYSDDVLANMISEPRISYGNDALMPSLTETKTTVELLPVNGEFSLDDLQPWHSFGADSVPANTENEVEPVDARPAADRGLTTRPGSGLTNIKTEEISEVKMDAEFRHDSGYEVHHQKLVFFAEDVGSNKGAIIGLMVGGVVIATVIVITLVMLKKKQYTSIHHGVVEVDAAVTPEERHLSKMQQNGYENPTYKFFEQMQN

COc1ccc(SCc2ccc(I)cc2)cc1
Ki ([1]; read-out: Ki): 530 nM
Ki ([1]; read-out: pKi (converted)): 525 nM

Ic1ccc(COc2ccccc2)cc1
Ki ([1]; read-out: Ki): 79.4 nM
Ki ([1]; read-out: pKi (converted)): 79.4 nM

Nc1ccccc1OCc1ccc(I)cc1
Ki ([1]; read-out: Ki): 1030 nM
Ki ([1]; read-out: pKi (converted)): 1020 nM

Oc1ccc(OCc2ccc(I)cc2)cc1
Ki ([1]; read-out: Ki): 113 nM
Ki ([1]; read-out: pKi (converted)): 112 nM

Fc1ccc(OCc2ccc(I)cc2)cc1
Ki ([1]; read-out: Ki): 107 nM
Ki ([1]; read-out: pKi (converted)): 107 nM

Ic1ccc(COc2ccc(I)cc2)cc1
Ki ([1]; read-out: Ki): 21.9 nM
Ki ([1]; read-out: pKi (converted)): 21.9 nM

CNc1ccccc1OCc1ccc(I)cc1
Ki ([1]; read-out: Ki): 20700 nM
Ki ([1]; read-out: pKi (converted)): 20900 nM

Nc1cccc(OCc2ccc(I)cc2)c1
Ki ([1]; read-out: Ki): 1530 nM
Ki ([1]; read-out: pKi (converted)): 1550 nM

Brc1ccc(OCc2ccc(I)cc2)cc1
Ki ([1]; read-out: Ki): 12 nM
Ki ([1]; read-out: pKi (converted)): 12 nM

COc1ccc(COc2ccc([125I])cc2)cc1
logD [2]: 4.16
Drug uptake (Brain [3]): > 4 % ID/g
Drug uptake (Brain [4]): < 0.5 % ID/g

CNc1ccc(OCc2ccc(I)cc2)cc1
Ki ([1]; read-out: Ki): 48.2 nM
Ki ([1]; read-out: pKi (converted)): 47.9 nM

CN(C)c1ccc(OCc2ccc([125I])cc2)cc1
logD [2]: 2.89
Drug uptake (Brain [3]): > 4 % ID/g
Drug uptake (Brain [4]): < 0.5 % ID/g

Nc1ccc(OCc2ccc(I)cc2)cc1
Ki ([1]; read-out: Ki): 409 nM
Ki ([1]; read-out: pKi (converted)): 407 nM

COc1ccc(OCc2ccc(I)cc2)cc1
Ki ([1]; read-out: Ki): 24.3 nM
Ki ([1]; read-out: pKi (converted)): 24.5 nM

CN(C)c1cccc(OCc2ccc(I)cc2)c1
Ki ([1]; read-out: Ki): 894 nM
Ki ([1]; read-out: pKi (converted)): 891 nM

CNc1cccc(OCc2ccc(I)cc2)c1
Ki ([1]; read-out: Ki): 594 nM
Ki ([1]; read-out: pKi (converted)): 589 nM

Oc1cccc(OCc2ccc(I)cc2)c1
Ki ([1]; read-out: Ki): 386 nM
Ki ([1]; read-out: pKi (converted)): 389 nM

COc1ccc(OCc2ccc([125I])cc2)cc1
Kd [5]: 0.56 nM
logD [2]: 4
Drug uptake (Brain [3]): 6.18 % ID/g
Drug uptake (Brain [4]): < 0.5 % ID/g
Ratio (Brain [6]): 16.3
Stability (Plasma): 100%
Stability (Liver [7]): 100%
Stability (Brain [8]): 95%
Stability (Brain [9]): 82%
Stability (Brain [10]): 46.6%
Stability (Brain [11]): 38.9%
Stability (Blood [12]): 71.5%
Stability (Blood [13]): 49.7%
Stability (Blood [14]): 18.2%
Stability (Blood [15]): 10.6%
Stability (Liver [16]): 42.4%
Stability (Liver [17]): 31.9%
Stability (Liver [18]): 2.5%
Stability (Liver [19]): 1.9%
Stability [20]: 8.4%
Stability [21]: 2.4%
Stability [22]: 1.3%
Stability [23]: 49.9%
Stability [24]: 40.6%

Oc1ccccc1OCc1ccc(I)cc1
Ki ([1]; read-out: Ki): 2830 nM
Ki ([1]; read-out: pKi (converted)): 2820 nM

Clc1ccc(OCc2ccc(I)cc2)cc1
Ki ([1]; read-out: Ki): 18.8 nM
Ki ([1]; read-out: pKi (converted)): 18.6 nM

CN(C)c1ccc(OCc2ccc(I)cc2)cc1
Ki ([1]; read-out: Ki): 17.6 nM
Ki ([1]; read-out: pKi (converted)): 17.8 nM

CC(C)(C)c1ccc(OCc2ccc(I)cc2)cc1
Ki ([1]; read-out: Ki): 118 nM
Ki ([1]; read-out: pKi (converted)): 117 nM

COc1ccc(COc2ccc(I)cc2)cc1
Ki ([1]; read-out: Ki): 49.4 nM
Ki ([1]; read-out: pKi (converted)): 49 nM

COc1cccc(OCc2ccc(I)cc2)c1
Ki ([1]; read-out: Ki): 131 nM
Ki ([1]; read-out: pKi (converted)): 132 nM

COc1ccccc1OCc1ccc(I)cc1
Ki ([1]; read-out: Ki): 5160 nM
Ki ([1]; read-out: pKi (converted)): 5130 nM
